Values joined by “and” are separate entries in the source; they are usually repeats but may differ in a detail not shown here. Equal entries are not always repeated.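 96-well plates; 48 h exposure; 5 concentrations. Endpoints by linear interpolation between flanking doses. Not reached: highest tested concentration assigned. Abbreviation: GI50, concentration required for 50% inhibition of growth. TGI is the concentration that stops growth completely.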
Columns and labels:
Test in all cases: NCI anticancer screen, dose series, 48 h
SW-620 colon = test system: SW-620 colon
DU-145 prostate = test system: DU-145 prostate
HCT-15 colon = test system: HCT-15 colon
OVCAR-4 ovarian = test system: OVCAR-4 ovarian
K-562 leukemia = test system: K-562 leukemia
RXF 393 renal = test system: RXF 393 renal
UACC-257 melanoma = test system: UACC-257 melanoma
SN12C renal = test system: SN12C renal
HCT-116 colon = test system: HCT-116 colon
HL-60(TB) leukemia = test system: HL-60(TB) leukemia

Row | Structure (SMILES) | GI50 (SW-620 colon) | TGI (SW-620 colon) | GI50 (DU-145 prostate) | TGI (DU-145 prostate) | GI50 (HCT-15 colon) | TGI (HCT-15 colon) | GI50 (OVCAR-4 ovarian) | TGI (OVCAR-4 ovarian) | GI50 (K-562 leukemia) | TGI (K-562 leukemia) | GI50 (RXF 393 renal) | TGI (RXF 393 renal) | GI50 (UACC-257 melanoma) | TGI (UACC-257 melanoma) | GI50 (SN12C renal) | TGI (SN12C renal) | TGI (HCT-116 colon) | TGI (HL-60(TB) leukemia) | GI50 (HCT-116 colon) | GI50 (HL-60(TB) leukemia)
1 | C=CCCCC(O)c1ccc(C(O)c2cnc3ccccc3c2)o1 (configuration not stated) | 38.1 µM | > 100 µM | 40 µM | > 100 µM | 31.4 µM | > 100 µM | > 100 µM | > 100 µM | 25 µM | 52.6 µM | 83.2 µM | > 100 µM | 18.8 µM | 61.4 µM | 30.9 µM | 90.9 µM |  |  |  | 
2 | C[C@H]1CCC2C(CN3CCCCC3)C(=O)OC2[C@]2(C)C(=O)CC(N3CCCCC3)C12O (some centres not stated) |  | 10.3 µM |  |  |  |  |  |  |  | 39.2 µM |  | 4.31 µM |  | 13.1 µM |  | 14.8 µM | 12 µM | 10.6 µM |  | 
3 | C=CCn1c(=O)c(C(=O)NC(=O)OCC)cn(C2CCCCC2)c1=O |  | > 100 µM |  |  |  | > 100 µM |  | > 100 µM |  | > 100 µM |  |  |  | > 100 µM |  | > 100 µM | > 100 µM | > 100 µM |  | 
4 | O=C1CCCCCCCCCCOC(=O)CCCCCCCCCCO1 |  | > 100 µM |  |  |  | > 100 µM |  | > 100 µM |  | > 100 µM |  | > 100 µM |  | > 100 µM |  | > 100 µM | > 100 µM | 44.8 µM |  | 
5 | O=C(CC1(O)C(=O)Nc2ccc([N+](=O)[O-])cc21)c1ccc(Br)cc1 (configuration not stated) |  |  |  |  |  | > 100 µM |  | > 100 µM |  | > 100 µM |  | 71.1 µM |  | > 100 µM |  | > 100 µM | > 100 µM | 45.7 µM |  | 
6 | O=C(Nc1nc(-c2ccccc2Cl)cs1)c1cc(-c2ccc(Cl)cc2)nc2ccc(Cl)cc12 | 4.01 µM | > 100 µM | 4.24 µM | > 100 µM | 1.93 µM | 40 µM | 9.92 µM | > 100 µM | 3.66 µM | > 100 µM | 10.3 µM | > 100 µM | 14.9 µM | > 100 µM | 0.895 µM | 76.9 µM | 13.2 µM |  | 0.395 µM | 
7 | C=C(C)[C@@H]1CC[C@]2(C(=O)N3CCN(C)CC3)CC[C@]3(C)[C@H](CC[C@@H]4[C@@]5(C)CC[C@H](O)C(C)(C)[C@@H]5CC[C@]43C)[C@@H]12 | 1.74 µM | 3.7 µM | 1.85 µM | 3.4 µM | 1.69 µM | 3.86 µM | 1.77 µM | 3.37 µM |  |  | 1.53 µM | 3.21 µM | 1.81 µM | 3.57 µM | 1.72 µM | 3.46 µM | 3.51 µM |  | 1.47 µM | 
8 | O=c1[nH]c(-c2ccc([N+](=O)[O-])cc2)nc2ccc(Cl)cc12 |  | > 100 µM |  |  |  | > 100 µM |  |  |  | 38.8 µM |  | > 100 µM |  | > 100 µM |  | > 100 µM | > 100 µM |  |  | 
9 | C1=CC(=NN=P(c2ccccc2)(c2ccccc2)c2ccccc2)C=C1 |  | > 100 µM |  |  |  | > 100 µM |  | > 100 µM |  | > 100 µM |  | > 100 µM |  | > 100 µM |  | > 100 µM |  | > 100 µM |  | 
10 | C=CNC(=S)n1nc(-c2ccccc2NC(=O)C(F)(F)F)c(=O)n(C(=S)NC=C)c1=S |  | > 100 µM |  |  |  | > 100 µM |  | 19.6 µM |  | > 100 µM |  | > 100 µM |  |  |  | > 100 µM | > 100 µM |  |  | 
11 | C/C(CC(=O)Nc1ccc([N+](=O)[O-])cc1)=N\Nc1ccc([N+](=O)[O-])cc1[N+](=O)[O-] |  | > 100 µM |  |  |  | > 100 µM |  |  |  | > 100 µM |  | > 100 µM |  | > 100 µM |  |  | > 100 µM | > 100 µM |  | 
12 | O=C(O)CCCc1cc2c(s1)-c1cccc3cccc-2c13 |  | > 100 µM |  |  |  | 51.8 µM |  | > 100 µM |  | > 100 µM |  |  |  | 53.9 µM |  | 80.4 µM | > 100 µM | 57.5 µM |  | 
13 | CC(O)c1ccc(C(O)/C(=N\NC(=O)c2ccncc2)c2nc3ccc([N+](=O)[O-])cc3[nH]c2=O)cc1 (configuration not stated) |  | > 100 µM |  |  |  | > 100 µM |  | > 100 µM |  | > 100 µM |  | > 100 µM |  | > 100 µM |  | > 100 µM | > 100 µM | > 100 µM |  | 
14 | Cc1cc(N(CCC#N)CCC#N)ccc1CC1N=C(c2ccccc2)OC1=O (configuration not stated) |  | > 100 µM |  |  |  | > 100 µM |  | > 100 µM |  | > 100 µM |  |  |  | > 100 µM |  | > 100 µM | > 100 µM | > 100 µM |  | 
15 | CCOC(=O)Cn1c(=O)[nH]c(=O)c2[nH]cnc21 |  | > 100 µM |  |  |  | > 100 µM |  | > 100 µM |  | > 100 µM |  | > 100 µM |  | > 100 µM |  | > 100 µM | > 100 µM | > 100 µM |  | 
16 | CSCC(COC(C)=O)(CSC)c1ccncc1 |  | > 100 µM |  |  |  | > 100 µM |  | > 100 µM |  | > 100 µM |  | > 100 µM |  | > 100 µM |  | > 100 µM | > 100 µM | > 100 µM |  | 
17 | O=C(CC(=O)N1N=C(c2ccccc2)C(N=Nc2ccccc2Cl)C1=O)Nc1ccccc1Cl (configuration not stated) |  | > 100 µM |  |  |  | > 100 µM |  | 63.2 µM |  | > 100 µM |  |  |  | > 100 µM |  | > 100 µM | > 100 µM | 25.9 µM |  | 
18 | O=C(Nc1ccc(Cl)cc1)c1cc2ccccc2cc1OP(=O)(O)O | 4.07 µM | 37.5 µM | 3.94 µM | 17.8 µM | 3.55 µM | > 100 µM | 4.88 µM | > 100 µM | 53.8 µM | > 100 µM | 6.64 µM | 71.1 µM |  |  | 3.4 µM | > 100 µM | 11.9 µM | > 100 µM | 3 µM | > 100 µM
19 | COc1ccc(NC(=O)C2=CC(=O)c3ccc(O)cc3C2=O)c(OC)c1 |  | > 100 µM |  |  |  | > 100 µM |  | > 100 µM |  | > 100 µM |  | > 100 µM |  | > 100 µM |  | > 100 µM | > 100 µM | > 100 µM |  | 
20 | COC1C(C)OC(OC2CC(C)(O)Cc3cc4c(c(O)c32)C(=O)c2c(O)cc3c(c2C4=O)OC2OC3(C)C(O)C(N(C)C)C2O)C(OC)C1(C)OC (configuration not stated) | 0.038 µM and 0.024 µM | 2.84 µM and 2.41 µM |  |  | 0.641 µM and 0.494 µM | 9.85 µM and 15.2 µM |  | 1.61 µM | 0.0272 µM and 0.0636 µM | 1.94 µM and 1.51 µM | 0.0548 µM and 0.0191 µM |  | 0.0784 µM and 0.0388 µM |  |  | 6.12 µM and 6.56 µM |  | 0.588 µM and 0.535 µM | 0.00273 µM and 0.0132 µM | 0.0711 µM and 0.105 µM
